{"source": "patent US11964041B2", "about": "“Compositions comprising levan and use thereof” (GAN SHMUEL FOODS LTD., priority 2018, dated 2024)", "format_in_all_cases": "cell-based", "key": {"[1]": {"test_system": "Staphylococcus epidermidis", "assay": "Bacterial growth, minimal inhibition concentration (MIC) assay", "details": "Ampicillin 100 μg/ml, positive control", "description": "The experiment was conducted in Staphylococcus epidermidis. Two Test Items were evaluated in this study; Levan and a Commercial reference (C.R.). The assay was carried out in triplicates. The in vitro activity of the Test items was evaluated by minimal inhibition concentration (MIC) assay. This was measured spectrometrically. The increase bacteria number versus time of incubation w/o or with increasing concentrations of the Test items was plotted. Streak plate isolation technique was performed to isolate a single homogenous colony, according to SOP. One colony of each bacterial strain was inoculated from agar plate into U-shape falcon tube at a final volume of 4 ml in BHI liquid broth. Cultures were incubated in a bacterial incubator-shaker at 37° C. with shaking at 250 rpm overnight. The cultures were diluted and grown to mid-log phase (O.D. Approx. 0.5; 600 nm). The exact O.D. was recorded [0.506]. Dose response analysis of six concentrations for each Test Item was performed in the bacteria as described in Table 7. The following control groups were included in this study: Naïve group (Group 1), Vehicle group (mock treatment—hexose, Group 2) and positive control groups (Ampicillin (100 μg/ml), Group 3). […] The absorbance was recorded at 600 nm. The absorbance of the blank control was subtracted from all measurements (0.107)."}, "human skin explants [2]": {"test_system": "human skin explants", "assay": "Epidermal viability by MTT in human skin organ culture", "details": "10% SDS, positive control, 48 hr", "description": "(§1) The human skin organ culture was obtained from a healthy patient undergoing plastic surgery (person). The study was initiated at the day of surgery.\n(§2) Fixed size skin explant pieces (0.64 cm^2) were cut from the skin tissue, using a designated press apparatus.\n(§3) The skin pieces were prepared and maintained in air liquid interphase; the explants were laid in 6-well culture plates containing skin culture medium (Dulbecco Minimal Essential Medium (DMEM) supplemented with 100 U/ml penicillin and 100 μg/ml streptomycin), dermal side down in the medium and epidermis phasing up. The pieces were left to recover at 37° C. with 5% CO2 overnight. […]\n(§4) The following control groups were also included in this study: Naïve group (Group 1), Vehicle group (mock treatment—hexose, Group 2), and positive control groups for viability and proliferation (10% SDS, Group 3 and 10 ng/ml EGF, Group 4, respectively). Hyaluronic acid was evaluated in this system (0.2%, Group 5). […]\n(§5) The pieces were incubated at 37° C. with 5% CO2 under humidified atmosphere for 48 hr. […] The epidermal viability was evaluated by MTT, according to standard operating procedure (SOP). […] Concomitantly, the epidermal turnover rate was determined on the second set of test groups by BrdU assay according to the kit's manufacturer instructions."}, "human skin explants [3]": {"test_system": "human skin explants", "assay": "Epidermal turnover rate by BrdU assay in human skin organ culture", "details": "hyaluronic acid 0.2% with vehicle", "description": "as §1, §2, §3, §4\nas §5, with “instructions. […]” for “instructions.”\nColorimetric evaluation of the turnover rate was recorded by Enzyme-Linked Immunosorbent Assay (ELISA) reader."}}, "data": [{"compound": "CC1(C)S[C@@H]2[C@H](NC(=O)[C@H](N)c3ccccc3)C(=O)N2[C@H]1C(=O)O", "note": "[Ampicillin]", "values": [{"measurement": "bacterial growth (O.D. 600 nm)", "setting": "[1]", "result": "effectively blocked the bacterial growth"}]}, {"compound": "CCCCCCCCCCCCOS(=O)(=O)[O-].[Na+]", "note": "[SDS]", "values": [{"measurement": "skin viability (MTT)", "setting": "human skin explants [2]", "result": "reduced skin viability"}]}, {"compound": "Hyaluronic acid", "values": [{"measurement": "effectiveness compared with the disclosed levan-based composition", "setting": "human skin explants [3]", "result": "less effective"}]}]}
